This is an account of results in US11236129B2, “IL-17A binding peptides and medical uses thereof” (Dompe' Farmaceutici S.P.A., priority 2018, dated 2022).

Residues, ends and D or L forms follow the SMILES beside them. Some results are limits rather than exact numbers.

This experiment concerns the target IL-17RA/IL17RC dimerization induced by IL-17A (Homo sapiens, UniProt Q16552). The experiment can be described thus: IL-17RA/IL17RC dimerization assay in response to IL-17A (PathHunter Cytokine Receptor Assay). It is filed as cell-based. The following applies: IL-17A at EC80; read-out: IC50 in IL-17RA/IL7RC dimerization assay. In short, it runs like this:
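Receptor dimerization was read as chemiluminescence from complemented β-galactosidase after IL-17A at EC80 concentration for 6–16 h at 37 °C. Peptides were added 60 min before agonist, at 37 °C or room temperature, with 1% vehicle. Percent inhibition used the EC80-stimulated and vehicle wells as references.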

Chain of IL-17RA/IL17RC dimerization induced by IL-17A (Q16552 24-155): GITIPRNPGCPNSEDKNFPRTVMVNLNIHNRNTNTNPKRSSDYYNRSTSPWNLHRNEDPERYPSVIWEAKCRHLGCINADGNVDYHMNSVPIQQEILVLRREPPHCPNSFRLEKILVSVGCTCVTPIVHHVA

Consider `CC[C@H](C)[C@H](NC(C)=O)C(=O)N[C@@H](Cc1c[nH]cn1)C(=O)N[C@H](C(=O)N[C@H](C(=O)N[C@H](C(=O)N1CCC[C@H]1C(=O)N[C@@H](C)C(=O)N[C@@H](CC(=O)O)C(=O)N[C@@H](CC(C)C)C(=O)N[C@@H](Cc1c[nH]c2ccccc12)C(=O)N[C@@H](CC(=O)O)C(=O)N[C@@H](Cc1c[nH]c2ccccc12)C(=O)N[C@H](C(=O)N[C@@H](CC(=O)O)C(=O)N[C@@H](CCCCN)C(N)=O)[C@@H](C)CC)[C@@H](C)CC)[C@@H](C)O)C(C)C` [SEQ ID NO: 221] (Ac-IHVTIPADLWDWIDK-NH2), for which the IC50 was less than 10 µM.
To `CC[C@H](C)[C@H](NC(C)=O)C(=O)N[C@@H](Cc1c[nH]cn1)C(=O)N[C@H](C(=O)N[C@H](C(=O)N[C@H](C(=O)N1CCC[C@H]1C(=O)N[C@@H](C)C(=O)N[C@@H](CC(=O)O)C(=O)N[C@@H](CC(C)C)C(=O)N[C@@H](Cc1c[nH]c2ccccc12)C(=O)N[C@@H](CC(=O)O)C(=O)N[C@@H](Cc1c[nH]c2ccccc12)C(=O)N[C@H](C(=O)N[C@@H](CC(N)=O)C(=O)N[C@@H](Cc1c[nH]cn1)C(N)=O)[C@@H](C)CC)[C@@H](C)CC)[C@@H](C)O)C(C)C` [SEQ ID NO: 222] (Ac-IHVTIPADLWDWINH-NH2) belongs less than 10 µM; to `CC[C@H](C)[C@H](NC(C)=O)C(=O)N[C@@H](Cc1c[nH]cn1)C(=O)N[C@H](C(=O)N[C@H](C(=O)N[C@H](C(=O)N1CCC[C@H]1C(=O)N[C@@H](C)C(=O)N[C@@H](CC(=O)O)C(=O)N[C@@H](CC(C)C)C(=O)N[C@@H](Cc1c[nH]c2ccccc12)C(=O)N[C@@H](CC(=O)O)C(=O)N[C@@H](Cc1c[nH]c2ccccc12)C(=O)N[C@H](C(=O)N[C@@H](CC(N)=O)C(=O)N[C@@H](CC(=O)O)C(N)=O)[C@@H](C)CC)[C@@H](C)CC)[C@@H](C)O)C(C)C` [SEQ ID NO: 223] (Ac-IHVTIPADLWDWIND-NH2), less than 10 µM; to `CC(=O)N[C@H](C(=O)N[C@@H](Cc1c[nH]cn1)C(=O)N[C@H](C(=O)N[C@H](C(=O)N[C@H](C(=O)N1CCC[C@H]1C(=O)N[C@@H](CCC(N)=O)C(=O)N[C@@H](CCC(=O)O)C(=O)N[C@@H](CC(C)C)C(=O)N[C@@H](Cc1c[nH]c2ccccc12)C(=O)N[C@@H](CCC(=O)O)C(=O)N[C@@H](Cc1c[nH]c2ccccc12)C(=O)N[C@H](C(=O)N[C@@H](CCCNC(=N)N)C(=O)N[C@@H](CCCNC(=N)N)C(N)=O)C(C)C)C(C)C)[C@@H](C)O)C(C)C)C(C)C` [SEQ ID NO: 224] (Ac-VHVTVPQELWEWVRR-NH2), less than 10 µM.
Then `CC(=O)N[C@H](C(=O)N[C@@H](Cc1c[nH]cn1)C(=O)N[C@H](C(=O)N[C@H](C(=O)N[C@H](C(=O)N1CCC[C@H]1C(=O)N[C@@H](CCC(N)=O)C(=O)N[C@@H](CCC(=O)O)C(=O)N[C@@H](CC(C)C)C(=O)N[C@@H](Cc1ccccc1)C(=O)N[C@@H](CCC(=O)O)C(=O)N[C@@H](Cc1c[nH]c2ccccc12)C(=O)N[C@H](C(=O)N[C@@H](CCCNC(=N)N)C(=O)N[C@@H](CCCNC(=N)N)C(N)=O)C(C)C)C(C)C)[C@@H](C)O)C(C)C)C(C)C` [SEQ ID NO: 225] (Ac-VHVTVPQELFEWVRR-NH2), with less than 10 µM; and `CC(=O)N[C@H](C(=O)N[C@@H](Cc1c[nH]cn1)C(=O)N[C@H](C(=O)N[C@H](C(=O)N[C@H](C(=O)N1CCC[C@H]1C(=O)N[C@@H](CCC(N)=O)C(=O)N[C@@H](CCC(=O)O)C(=O)N[C@@H](CC(C)C)C(=O)N[C@@H](Cc1ccc(O)cc1)C(=O)N[C@@H](CCC(=O)O)C(=O)N[C@@H](Cc1c[nH]c2ccccc12)C(=O)N[C@H](C(=O)N[C@@H](CCCNC(=N)N)C(=O)N[C@@H](CCCNC(=N)N)C(N)=O)C(C)C)C(C)C)[C@@H](C)O)C(C)C)C(C)C` [SEQ ID NO: 226] (Ac-VHVTVPQELYEWVRR-NH2), with less than 10 µM.
Take `CC(=O)N[C@H](C(=O)N[C@@H](Cc1c[nH]cn1)C(=O)N[C@H](C(=O)N[C@H](C(=O)N[C@H](C(=O)N1CCC[C@H]1C(=O)N[C@@H](CCC(N)=O)C(=O)N[C@@H](CCC(=O)O)C(=O)N[C@@H](CC(C)C)C(=O)N[C@@H](Cc1c[nH]c2ccccc12)C(=O)N[C@@H](CCC(=O)O)C(=O)N[C@@H](Cc1c[nH]c2ccccc12)C(=O)N[C@H](C(=O)N[C@@H](CCC(=O)O)C(=O)N[C@@H](CCC(=O)O)C(N)=O)C(C)C)C(C)C)[C@@H](C)O)C(C)C)C(C)C` [SEQ ID NO: 227] (Ac-VHVTVPQELWEWVEE-NH2): the IC50 is less than 10 µM.
To `CC(=O)N[C@H](C(=O)N[C@@H](Cc1c[nH]cn1)C(=O)N[C@H](C(=O)N[C@H](C(=O)N[C@H](C(=O)N1CCC[C@H]1C(=O)N[C@@H](CCC(N)=O)C(=O)N[C@@H](CCC(=O)O)C(=O)N[C@@H](CC(C)C)C(=O)N[C@@H](Cc1ccccc1)C(=O)N[C@@H](CCC(=O)O)C(=O)N[C@@H](Cc1c[nH]c2ccccc12)C(=O)N[C@H](C(=O)N[C@@H](CCC(=O)O)C(=O)N[C@@H](CCC(=O)O)C(N)=O)C(C)C)C(C)C)[C@@H](C)O)C(C)C)C(C)C` [SEQ ID NO: 228] (Ac-VHVTVPQELFEWVEE-NH2) belongs less than 10 µM; to `CC(=O)N[C@H](C(=O)N[C@@H](Cc1c[nH]cn1)C(=O)N[C@H](C(=O)N[C@H](C(=O)N[C@H](C(=O)N1CCC[C@H]1C(=O)N[C@@H](CCC(N)=O)C(=O)N[C@@H](CCC(=O)O)C(=O)N[C@@H](CC(C)C)C(=O)N[C@@H](Cc1ccc(O)cc1)C(=O)N[C@@H](CCC(=O)O)C(=O)N[C@@H](Cc1c[nH]c2ccccc12)C(=O)N[C@H](C(=O)N[C@@H](CCC(=O)O)C(=O)N[C@@H](CCC(=O)O)C(N)=O)C(C)C)C(C)C)[C@@H](C)O)C(C)C)C(C)C` [SEQ ID NO: 229] (Ac-VHVTVPQELYEWVEE-NH2), less than 10 µM; to `CC[C@H](C)[C@H](NC(=O)[C@H](CO)NC(=O)[C@@H](NC(=O)[C@H](Cc1c[nH]cn1)NC(=O)[C@@H](NC(C)=O)C(C)C)C(C)C)C(=O)N1CCC[C@H]1C(=O)N[C@@H](CCC(N)=O)C(=O)N[C@@H](CCC(=O)O)C(=O)N[C@@H](CC(C)C)C(=O)N[C@@H](Cc1c[nH]c2ccccc12)C(=O)N[C@@H](CCC(=O)O)C(=O)N[C@@H](Cc1c[nH]c2ccccc12)C(=O)N[C@H](C(=O)N[C@@H](CCCNC(=N)N)C(=O)N[C@@H](CCCNC(=N)N)C(N)=O)C(C)C` [SEQ ID NO: 230] (Ac-VHVSIPQELWEWVRR-NH2), less than 10 µM.
Then `CC(=O)N[C@H](C(=O)N[C@@H](Cc1c[nH]cn1)C(=O)N[C@H](C(=O)N[C@@H](CO)C(=O)N[C@H](C(=O)N1CCC[C@H]1C(=O)N[C@@H](CCC(N)=O)C(=O)N[C@@H](CCC(=O)O)C(=O)N[C@@H](CC(C)C)C(=O)N[C@@H](Cc1c[nH]c2ccccc12)C(=O)N[C@@H](CCC(=O)O)C(=O)N[C@@H](Cc1c[nH]c2ccccc12)C(=O)N[C@H](C(=O)N[C@@H](CCCNC(=N)N)C(=O)N[C@@H](CCCNC(=N)N)C(N)=O)C(C)C)C(C)C)C(C)C)C(C)C` [SEQ ID NO: 231] (Ac-VHVSVPQELWEWVRR-NH2), with less than 10 µM.
`CC(=O)N[C@H](C(=O)N[C@@H](Cc1c[nH]cn1)C(=O)N[C@H](C(=O)N[C@@H](CO)C(=O)N[C@H](C(=O)N1CCC[C@H]1C(=O)N[C@@H](CCC(N)=O)C(=O)N[C@@H](CCC(=O)O)C(=O)N[C@@H](CC(C)C)C(=O)N[C@@H](Cc1ccc(O)cc1)C(=O)N[C@@H](CCC(=O)O)C(=O)N[C@@H](Cc1c[nH]c2ccccc12)C(=O)N[C@H](C(=O)N[C@@H](CCCNC(=N)N)C(=O)N[C@@H](CCCNC(=N)N)C(N)=O)C(C)C)C(C)C)C(C)C)C(C)C` [SEQ ID NO: 232] (Ac-VHVSVPQELYEWVRR-NH2): the IC50 was less than 10 µM.
Then `CC[C@H](C)[C@H](NC(=O)[C@@H](NC(=O)[C@@H](NC(=O)[C@H](CCCNC(=N)N)NC(=O)[C@@H](NC(C)=O)C(C)C)C(C)C)[C@@H](C)O)C(=O)N1CCC[C@H]1C(=O)N[C@@H](CCC(N)=O)C(=O)N[C@@H](CCC(=O)O)C(=O)N[C@@H](CC(C)C)C(=O)N[C@@H](Cc1c[nH]c2ccccc12)C(=O)N[C@@H](CCC(=O)O)C(=O)N[C@@H](Cc1c[nH]c2ccccc12)C(=O)N[C@H](C(=O)N[C@@H](CCCNC(=N)N)C(=O)N[C@@H](CCCNC(=N)N)C(N)=O)C(C)C` [SEQ ID NO: 233] (Ac-VRVTIPQELWEWVRR-NH2), with less than 10 µM.
For `CC(=O)N[C@H](C(=O)N[C@@H](CCCNC(=N)N)C(=O)N[C@H](C(=O)N[C@H](C(=O)N[C@H](C(=O)N1CCC[C@H]1C(=O)N[C@@H](CCC(N)=O)C(=O)N[C@@H](CCC(=O)O)C(=O)N[C@@H](CC(C)C)C(=O)N[C@@H](Cc1ccc(O)cc1)C(=O)N[C@@H](CCC(=O)O)C(=O)N[C@@H](Cc1c[nH]c2ccccc12)C(=O)N[C@H](C(=O)N[C@@H](CCCNC(=N)N)C(=O)N[C@@H](CCCNC(=N)N)C(N)=O)C(C)C)C(C)C)[C@@H](C)O)C(C)C)C(C)C` [SEQ ID NO: 234] (Ac-VRVTVPQELYEWVRR-NH2), the IC50 was less than 10 µM.
Then `CC(=O)N[C@H](C(=O)N[C@@H](CCCNC(=N)N)C(=O)N[C@H](C(=O)N[C@H](C(=O)N[C@H](C(=O)N1CCC[C@H]1C(=O)N[C@@H](CCC(N)=O)C(=O)N[C@@H](CCC(=O)O)C(=O)N[C@@H](CC(C)C)C(=O)N[C@@H](Cc1c[nH]c2ccccc12)C(=O)N[C@@H](CCC(=O)O)C(=O)N[C@@H](Cc1c[nH]c2ccccc12)C(=O)N[C@H](C(=O)N[C@@H](CCCNC(=N)N)C(=O)N[C@@H](CCCNC(=N)N)C(N)=O)C(C)C)C(C)C)[C@@H](C)O)C(C)C)C(C)C` [SEQ ID NO: 235] (Ac-VRVTVPQELWEWVRR-NH2), with less than 10 µM; and `CC[C@H](C)[C@H](NC(=O)[C@H](CCC(=O)O)NC(=O)[C@H](CCC(N)=O)NC(=O)[C@@H]1CCCN1C(=O)[C@@H](NC(=O)[C@@H](NC(=O)[C@@H](NC(=O)[C@H](Cc1c[nH]cn1)NC(=O)[C@@H](NC(C)=O)C(C)C)C(C)C)[C@@H](C)O)C(C)C)C(=O)N[C@@H](Cc1ccc(O)cc1)C(=O)N[C@@H](CCC(=O)O)C(=O)N[C@@H](Cc1c[nH]c2ccccc12)C(=O)N[C@H](C(=O)N[C@@H](CCCNC(=N)N)C(=O)N[C@@H](CCCNC(=N)N)C(N)=O)C(C)C` [SEQ ID NO: 236] (Ac-VHVTVPQEIYEWVRR-NH2), with less than 10 µM.
